Experimental findings from patent publication US6380146B1, “Bleaching detergent compositions” (priority 1999, dated 2002) are described below.

Where two headings read alike, the source gives them in different places.

Assay [1] relates to phenol oxidizing enzyme from Acremonium murorum. To be noted: enhancer 250 μM, detergent formulation 2 g/l, pH 9, 30 min, 30° C.; for Stain bleach performance ΔE, Tomato Extract, With enzyme: enzyme 20 mg/l; for Stain bleach performance ΔE, Tomato Extract, Without enzyme: no enzyme. The procedure:
(§1) The potential of the various enhancer to boost the bleach performance of phenol oxidizing enzyme was assessed by washing cotton swatches soiled with tomato stains. Two different bleach monitors were used:
Tomato extract material was prepared by acetone extraction of the chromophores from concentrated tomato paste. For the preparation of the stains, the colored acetone solution was applied to cotton swatches
(§2) The pH of the wash solution was set to pH 9. Purified phenol oxidizing enzyme from Acremonium murorum was added to the wash solution at 20 mg/l. […] The enhancers were all dosed at 250 μM. The wash solution was 50 mM Tris buffer.
(§3) The swatches were washed during 30 minutes, at 30° C. After the wash, the swatches were tumble-dried and the reflectance spectra were measured using a Minolta spectrometer. The color differences between the swatch before and after the wash data were expressed in the CIELAB L*a*b* color space. In this color space, L* indicates lightness and a* and b* are the chromaticity coordinates. Color differences between two swatches are expressed as ΔE, which is calculated from the following equation:
(§4) ΔE={square root over (ΔL^2[…] )}

Assay [2] shares this test system. As to the kind of experiment: Bleaching of oily tomato stains on cotton swatches by phenol oxidizing enzyme/enhancer system. To be noted: enhancer 250 μM, detergent formulation 2 g/l, pH 9, 30 min, 30° C.; for Stain bleach performance ΔE, Oily Tomato Stain, With enzyme: enzyme 20 mg/l; for Stain bleach performance ΔE, Oily Tomato Stain, Without enzyme: no enzyme. The procedure: as §1
Oily tomato stains were prepared by applying heated concentrated tomato paste, to which 5 wt % Soya oil was added, to cotton swatches.
as §2, §3, §4

Assay [3] shares this test system. As to the kind of experiment: Dye damage of the phenol oxidizing enzyme/enhancer system on colored swatch P10, consecutive washes in detergent formulation. Particulars: enzyme 20 mg/l, enhancer 250 μM, 40° C., 1 hour. The procedure: A number of colored swatches were washed to assess the degree to which the enzymatic bleach system provokes dye damage. Each swatch was subjected to 5 consecutive washes in a detergent formulation. The closed containers were agitated by putting them in a washing machine. The machine was run for 1 hour with the water heated to 40° C. The pH of the wash solution was set to pH 9. The phenol oxidizing enzyme from Acremonium murorum (see above) was added to the wash solution at 20 mg/l. The enhancers were all dosed at 250 μM.

Assay [4] has the same test system. Kind of assay: Dye damage of the phenol oxidizing enzyme/enhancer system on dyed swatches, 3 washes in Tris buffer. To be noted: Tris buffer pH 8, enzyme 20 mg/l, enhancer 250 μM; for Color difference (ΔE) dyed swatch OO2 after 3 washes: Dyed Monitor OO2, 3 washes; for Color difference (ΔE) dyed swatch OO6 after 3 washes: Dyed Monitor OO6, 3 washes; for Color difference (ΔE) dyed swatch P10 after 3 washes: Dyed Monitor P10, 3 washes; for Color difference (ΔE) dyed swatch PO8 after 3 washes: Dyed Monitor PO8, 3 washes. The procedure:
A number of colored swatches were washed to assess the degree to which the enzymatic bleach system provokes dye damage. […] The closed containers were agitated by putting them in a washing machine. The machine was run for 1 hour with the water heated to 40° C. […] The phenol oxidizing enzyme from Acremonium murorum (see above) was added to the wash solution at 20 mg/l. The enhancers were all dosed at 250 μM.

Assay [5] shares this test system. From the text: The bleaching detergent composition of the present invention comprise one or more surfactants, a phenol oxidizing enzyme and a compound which acts as enhancer for the phenol oxidizing enzyme, said composition having an Enhancer Index as herein defined of at least 12. The Enhancer Index is defined for the purpose of this invention as the ratio of the bleach effect on tomato stains to the colored monitor P10 (ΔEtomato stain/ΔEP10 colored monitor) , and is further illustrated in the Examples. […] Preferably, the Enhancer Index is at least 15, and in particular in the range of 15-50.
In order to express the potential of the various enhancers to provoke stain bleaching in the absence of dye damage, the ratio of bleach effect on the tomato stains to the colored monitor P10 was calculated (ΔEtomato stain/ΔEP10 colored monitor) . This ratio, when tomato extract is used as the stain, is referred to as the ‘Ehancer Index’.

Where [6] appears, read: ΔE oily tomato stain/ΔE P10, 50 mM Tris buffer solution.
The mark [7] stands for this setting: ΔE oily tomato stain/ΔE P10, detergent formulation.
Where [8] appears, read: ΔE tomato extract/ΔE P10, 50 mM Tris buffer solution.
[9] abbreviates: ΔE tomato extract/ΔE P10, detergent formulation.

For the molecule `CCn1c(=NN=c2sc3cc(S(=O)(=O)O)ccc3n2CC)sc2cc(S(=O)(=O)O)ccc21` [ABTS], in assay [1], the “Stain bleach performance ΔE, Tomato Extract, With enzyme” value stood at 37.56 and the “Stain bleach performance ΔE, Tomato Extract, Without enzyme” value was 11.12. In assay [2], the “Stain bleach performance ΔE, Oily Tomato Stain, With enzyme” value came out at 27.53 and the “Stain bleach performance ΔE, Oily Tomato Stain, Without enzyme” value worked out at 8.67. In addition, in assay [3], the “Color difference (ΔE) original P10 swatch vs after 1st wash” value was found to be 1.61, the “Color difference (ΔE) original P10 swatch vs after 2nd wash” value is 1.51, the “Color difference (ΔE) original P10 swatch vs after 3rd wash” value was 3.29 and the “Color difference (ΔE) original P10 swatch vs after 4th wash” value was found to be 4.99. The “Color difference (ΔE) original P10 swatch vs after 5th wash” value in assay [3] worked out at 6.52. For the same molecule, in assay [4], the “Color difference (ΔE) dyed swatch OO2 after 3 washes” value amounted to 3.47, the “Color difference (ΔE) dyed swatch OO6 after 3 washes” value is 19.70, the “Color difference (ΔE) dyed swatch P10 after 3 washes” value is on record as 12.18 and the “Color difference (ΔE) dyed swatch PO8 after 3 washes” value is 24.02. In assay [5] (setting [6]), the “Ratio Bleach on Stain Monitor/Dye Damage, Oily Tomato Stain” value worked out at 2.66. Besides, the “Ratio Bleach on Stain Monitor/Dye Damage, Oily Tomato Stain” value in assay [5] (setting [7]) was 4.22. Moreover, the “Ratio Bleach on Stain Monitor/Dye Damage, Tomato Extract (Enhancer Index)” value in assay [5] (setting [8]) worked out at 2.93. The “Ratio Bleach on Stain Monitor/Dye Damage, Tomato Extract (Enhancer Index)” value in assay [5] (setting [9]) was determined as 5.76.

Regarding `Cc1ccc(S(=O)(=O)Nc2cc(Br)c(O)c(Br)c2Br)cc1` [3Brphenol3MeBSA, N-(2,3,5-tribromo-4-hydroxyphenyl)-4-Methyl Benzenesulfonamide], in assay [1], the “Stain bleach performance ΔE, Tomato Extract, With enzyme” value is 27.57 and the “Stain bleach performance ΔE, Tomato Extract, Without enzyme” value is reported as 12.86. For the same molecule, in assay [2], the “Stain bleach performance ΔE, Oily Tomato Stain, With enzyme” value stood at 11.71 and the “Stain bleach performance ΔE, Oily Tomato Stain, Without enzyme” value amounted to 6.87. In assay [3], the “Color difference (ΔE) original P10 swatch vs after 1st wash” value was 0.93, the “Color difference (ΔE) original P10 swatch vs after 2nd wash” value was found to be 0.98, the “Color difference (ΔE) original P10 swatch vs after 3rd wash” value was found to be 1.10 and the “Color difference (ΔE) original P10 swatch vs after 4th wash” value is 1.62. Moreover, the “Color difference (ΔE) original P10 swatch vs after 5th wash” value in assay [3] was 1.86. In addition, in assay [4], the “Color difference (ΔE) dyed swatch OO2 after 3 washes” value amounted to 0.41, the “Color difference (ΔE) dyed swatch OO6 after 3 washes” value is given as 4.59, the “Color difference (ΔE) dyed swatch P10 after 3 washes” value stood at 0.96 and the “Color difference (ΔE) dyed swatch PO8 after 3 washes” value was 1.52. In addition, in assay [5] (setting [6]), the “Ratio Bleach on Stain Monitor/Dye Damage, Oily Tomato Stain” value is listed as 6.46. Moreover, in assay [5] (setting [7]), the “Ratio Bleach on Stain Monitor/Dye Damage, Oily Tomato Stain” value amounted to 6.29. Also, in assay [5] (setting [8]), the “Ratio Bleach on Stain Monitor/Dye Damage, Tomato Extract (Enhancer Index)” value stood at 20.40. Besides, the “Ratio Bleach on Stain Monitor/Dye Damage, Tomato Extract (Enhancer Index)” value in assay [5] (setting [9]) stood at 14.82.

As for `O=S(=O)(Nc1cc(Br)c(O)c(Br)c1Br)c1ccccc1` [Enhancer 3BrphenolBSA, N-(2,3,5-tribromo-4-hydroxyphenyl)-Benzenesulfonamide], in assay [1], the “Stain bleach performance ΔE, Tomato Extract, With enzyme” value is given as 26.87 and the “Stain bleach performance ΔE, Tomato Extract, Without enzyme” value is reported as 12.99. Besides, in assay [2], the “Stain bleach performance ΔE, Oily Tomato Stain, With enzyme” value stood at 10.95 and the “Stain bleach performance ΔE, Oily Tomato Stain, Without enzyme” value is 6.89. Further, in assay [3], the “Color difference (ΔE) original P10 swatch vs after 1st wash” value came out at 1.69, the “Color difference (ΔE) original P10 swatch vs after 2nd wash” value is listed as 1.17, the “Color difference (ΔE) original P10 swatch vs after 3rd wash” value came out at 1.20 and the “Color difference (ΔE) original P10 swatch vs after 4th wash” value worked out at 1.55. Besides, in assay [3], the “Color difference (ΔE) original P10 swatch vs after 5th wash” value worked out at 1.77. Besides, in assay [4], the “Color difference (ΔE) dyed swatch OO2 after 3 washes” value is 0.47, the “Color difference (ΔE) dyed swatch OO6 after 3 washes” value worked out at 4.45, the “Color difference (ΔE) dyed swatch P10 after 3 washes” value was 1.00 and the “Color difference (ΔE) dyed swatch PO8 after 3 washes” value worked out at 1.45. Moreover, the “Ratio Bleach on Stain Monitor/Dye Damage, Oily Tomato Stain” value in assay [5] (setting [6]) stood at 5.62. Also, in assay [5] (setting [7]), the “Ratio Bleach on Stain Monitor/Dye Damage, Oily Tomato Stain” value was 6.18. Further, in assay [5] (setting [8]), the “Ratio Bleach on Stain Monitor/Dye Damage, Tomato Extract (Enhancer Index)” value is listed as 19.97. In addition, in assay [5] (setting [9]), the “Ratio Bleach on Stain Monitor/Dye Damage, Tomato Extract (Enhancer Index)” value is 15.18.

For the molecule `O=C(O)CCN1c2ccccc2Sc2ccccc21` [PTP, Phenothiazine-10-propionate], in assay [1], the “Stain bleach performance ΔE, Tomato Extract, With enzyme” value stood at 33.66 and the “Stain bleach performance ΔE, Tomato Extract, Without enzyme” value turned out to be 12.00. In addition, in assay [2], the “Stain bleach performance ΔE, Oily Tomato Stain, With enzyme” value is on record as 9.41 and the “Stain bleach performance ΔE, Oily Tomato Stain, Without enzyme” value was found to be 8.54. Further, in assay [3], the “Color difference (ΔE) original P10 swatch vs after 1st wash” value was 0.51, the “Color difference (ΔE) original P10 swatch vs after 2nd wash” value amounted to 0.78, the “Color difference (ΔE) original P10 swatch vs after 3rd wash” value is listed as 1.79 and the “Color difference (ΔE) original P10 swatch vs after 4th wash” value is on record as 2.63. In assay [3], the “Color difference (ΔE) original P10 swatch vs after 5th wash” value is listed as 3.25. In assay [4], the “Color difference (ΔE) dyed swatch OO2 after 3 washes” value turned out to be 6.34, the “Color difference (ΔE) dyed swatch OO6 after 3 washes” value was 15.64, the “Color difference (ΔE) dyed swatch P10 after 3 washes” value amounted to 9.66 and the “Color difference (ΔE) dyed swatch PO8 after 3 washes” value is 12.57. The “Ratio Bleach on Stain Monitor/Dye Damage, Oily Tomato Stain” value in assay [5] (setting [6]) is 0.69. The “Ratio Bleach on Stain Monitor/Dye Damage, Oily Tomato Stain” value in assay [5] (setting [7]) was determined as 2.89. For the same molecule, in assay [5] (setting [8]), the “Ratio Bleach on Stain Monitor/Dye Damage, Tomato Extract (Enhancer Index)” value came out at 3.59. The “Ratio Bleach on Stain Monitor/Dye Damage, Tomato Extract (Enhancer Index)” value in assay [5] (setting [9]) is 10.35.
